Source: US20230085307A1, “PYRIDAZINONE COMPOUND AND HERBICIDE” (NISSAN CHEMICAL CORPORATION, priority 2019, published 2023)

Legend:
redroot pigweed [1] = test: Test Example 5: herbicidal effect by foliage application, plastic box (Table 20, symbol N); format: in vivo, redroot pigweed (Amaranthus retroflexus); conditions: foliage application, 320 g/ha, three weeks after application
Outline: (§1)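 Sow seeds spot-wise in sterilized diluvial soil; cover with ~1.5 cm soil. Grow 14 days in greenhouse, 25° C. to 30° C. Spray foliage with emulsion diluted to predetermined amount. Rate effect after 3 weeks.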

windgrass [2] = test: Test Example 4: herbicidal effect by soil treatment (Table 19, symbol L); format: in vivo, windgrass (Apera spica-venti); conditions: amount of applied herbicide 320 g/ha
Outline: (§2)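 Applied as a water-diluted emulsion, the compound was sprayed onto soil covering newly sown seeds. Evaluation came three weeks after application, in a greenhouse held at 25° C. to 30° C.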

lambsquarters [3] = test: Test Example 4: herbicidal effect by soil treatment (Table 19, symbol O); format: in vivo, lambsquarters (Chenopodium album); conditions: amount of applied herbicide 320 g/ha
Outline: as §2

blackgrass [4] = test: Test Example 5: herbicidal effect by foliage application, plastic box (Table 20, symbol J); format: in vivo, blackgrass (Alopecurus myosuroides); conditions: foliage application, 320 g/ha, three weeks after application
Outline: as §1

chickweed = test: Test Example 5: herbicidal effect by foliage application, plastic box (Table 20, symbol P); format: in vivo, common chickweed (Stellaria media); conditions: foliage application, 320 g/ha, three weeks after application
Outline: as §1

rice flat sedge = test: Test Example 3: herbicidal effect by foliage application, Wagner pot (Table 18, symbol E); format: in vivo, rice flat sedge (Cyperus iria)
Outline: (§3)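 Plants were sown in alluvial soil held under 0.1–0.5 cm standing water and grown 14 days in a greenhouse at 25–30 °C. An emulsifiable formulation, water-diluted to the set dose, was then sprayed onto the foliage, and effects were scored three weeks later using previously defined criteria.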

persian speedwell = test: Test Example 5: herbicidal effect by foliage application, plastic box (Table 20, symbol R); format: in vivo, Persian speedwell (Veronica persica); conditions: foliage application, 320 g/ha, three weeks after application
Outline: as §1

barnyard grass [5] = test: Test Example 4: herbicidal effect by soil treatment (Table 19, symbol H); format: in vivo, barnyard grass (Echinochloa crus-galli); conditions: amount of applied herbicide 320 g/ha
Outline: as §2

false cleavers = test: Test Example 4: herbicidal effect by soil treatment (Table 19, symbol Q); format: in vivo, false cleavers (Galium spurium); conditions: amount of applied herbicide 320 g/ha
Text: [Test Example 4] Herbicidal Effect Test by Soil Treatment
Sterilized diluvial soil was placed in a plastic box having a length of 21 cm, a width of 13 cm, and a depth of 7 cm. The seeds of each of southern crabgrass, green foxtail, barnyard grass, wild oat, blackgrass, Italian ryegrass, windgrass, velvetleaf, redroot pigweed, lambsquarters, chickweed, false cleavers, persian speedwell, corn, soybean, rice, wheat, beet, and rapeseed were sowed in a spot-like manner and covered with the soil having a thickness of about 1.5 cm. Subsequently, the emulsion agent of the compound of the present invention prepared according to Formulation Example 2 was diluted with water so as to achieve a predetermined herbicide amount, and the diluted emulsion agent was uniformly applied to the surface of the soil with a small-sized spray. The plastic box was placed in a greenhouse at 25° C. to 30° C. for growth of the plants. Three weeks after the herbicide application, the effect of the herbicide on each plant was evaluated according to the criteria of Test Example 1.

Italian ryegrass [6] = test: Test Example 5: herbicidal effect by foliage application, plastic box (Table 20, symbol K); format: in vivo, Italian ryegrass (Lolium multiflorum); conditions: foliage application, 320 g/ha, three weeks after application
Outline: as §1

velvetleaf [7] = test: Test Example 4: herbicidal effect by soil treatment (Table 19, symbol M); format: in vivo, velvetleaf (Abutilon theophrasti); conditions: amount of applied herbicide 320 g/ha
Outline: as §2

lambsquarters [8] = test: Test Example 5: herbicidal effect by foliage application, plastic box (Table 20, symbol O); format: in vivo, lambsquarters (Chenopodium album); conditions: foliage application, 320 g/ha, three weeks after application
Outline: as §1

southern crabgrass [9] = test: Test Example 4: herbicidal effect by soil treatment (Table 19, symbol F); format: in vivo, southern crabgrass (Digitaria ciliaris); conditions: amount of applied herbicide 320 g/ha
Outline: as §2

blackgrass [10] = test: Test Example 4: herbicidal effect by soil treatment (Table 19, symbol J); format: in vivo, blackgrass (Alopecurus myosuroides); conditions: amount of applied herbicide 320 g/ha
Outline: as §2

windgrass [11] = test: Test Example 5: herbicidal effect by foliage application, plastic box (Table 20, symbol L); format: in vivo, windgrass (Apera spica-venti); conditions: foliage application, 320 g/ha, three weeks after application
Outline: as §1

wild oat [12] = test: Test Example 4: herbicidal effect by soil treatment (Table 19, symbol I); format: in vivo, wild oat (Avena fatua); conditions: amount of applied herbicide 320 g/ha
Outline: as §2

Chinese sprangletop = test: Test Example 3: herbicidal effect by foliage application, Wagner pot (Table 18, symbol D); format: in vivo, chinese sprangletop (Leptochloa chinensis)
Outline: as §3

barnyard grass [13] = test: Test Example 5: herbicidal effect by foliage application, plastic box (Table 20, symbol H); format: in vivo, barnyard grass (Echinochloa crus-galli); conditions: foliage application, 320 g/ha, three weeks after application
Outline: as §1

redroot pigweed [14] = test: Test Example 4: herbicidal effect by soil treatment (Table 19, symbol N); format: in vivo, redroot pigweed (Amaranthus retroflexus); conditions: amount of applied herbicide 320 g/ha
Outline: as §2

green foxtail [15] = test: Test Example 4: herbicidal effect by soil treatment (Table 19, symbol G); format: in vivo, green foxtail (Setaria viridis); conditions: amount of applied herbicide 320 g/ha
Outline: as §2

green foxtail [16] = test: Test Example 5: herbicidal effect by foliage application, plastic box (Table 20, symbol G); format: in vivo, green foxtail (Setaria viridis); conditions: foliage application, 320 g/ha, three weeks after application
Outline: as §1

velvetleaf [17] = test: Test Example 5: herbicidal effect by foliage application, plastic box (Table 20, symbol M); format: in vivo, velvetleaf (Abutilon theophrasti); conditions: foliage application, 320 g/ha, three weeks after application
Outline: as §1

wild oat [18] = test: Test Example 5: herbicidal effect by foliage application, plastic box (Table 20, symbol I); format: in vivo, wild oat (Avena fatua); conditions: foliage application, 320 g/ha, three weeks after application
Outline: as §1

barnyard grass [19] = test: Test Example 3: herbicidal effect by foliage application, Wagner pot (Table 18, symbol H); format: in vivo, barnyard grass (Echinochloa crus-galli)
Outline: as §3

southern crabgrass [20] = test: Test Example 5: herbicidal effect by foliage application, plastic box (Table 20, symbol F); format: in vivo, southern crabgrass (Digitaria ciliaris); conditions: foliage application, 320 g/ha, three weeks after application
Outline: as §1

Italian ryegrass [21] = test: Test Example 4: herbicidal effect by soil treatment (Table 19, symbol K); format: in vivo, Italian ryegrass (Lolium multiflorum); conditions: amount of applied herbicide 320 g/ha
Outline: as §2

[22] = amount of applied herbicide 320 g/ha

## Cn1ncc(O)c(-c2c(-c3ccc(F)cc3)sc3ccccc23)c1=O [1-001]
Redroot pigweed [1]
  herbicidal effect grade, N: redroot pigweed: 1 (Herbicidal rate of 5% or more and less than 20%)
Windgrass [2]
  herbicidal effect rating, L: windgrass: 0 (Herbicidal rate of 5% or less (almost no effect))
Lambsquarters [3]
  herbicidal effect rating, O: lambsquarters: 0 (Herbicidal rate of 5% or less (almost no effect))
Blackgrass [4]
  herbicidal effect grade, J: blackgrass: 0 (Herbicidal rate of 5% or less (almost no effect))
chickweed
  herbicidal effect grade, P: chickweed: 5 (Herbicidal rate of 90% or more (almost completely withered))
Rice flat sedge; 320 g/ha
  herbicidal effect on E (rice flat sedge), rating 0-5: 5 (Herbicidal rate of 90% or more (almost completely withered))
Persian speedwell
  herbicidal effect grade, R: persian speedwell: 3 (Herbicidal rate of 40% or more and less than 70%)
Barnyard grass [5]
  herbicidal effect rating, H: barnyard grass: 0 (Herbicidal rate of 5% or less (almost no effect))
False cleavers
  herbicidal effect rating, Q: false cleavers: 0 (Herbicidal rate of 5% or less (almost no effect))
Italian ryegrass [6]
  herbicidal effect grade, K: Italian ryegrass: 0 (Herbicidal rate of 5% or less (almost no effect))
Velvetleaf [7]
  herbicidal effect rating, M: velvetleaf: 0 (Herbicidal rate of 5% or less (almost no effect))
Lambsquarters [8]
  herbicidal effect grade, O: lambsquarters: 2 (Herbicidal rate of 20% or more and less than 40%)
Southern crabgrass [9]
  herbicidal effect rating, F: southern crabgrass: 0 (Herbicidal rate of 5% or less (almost no effect))
Blackgrass [10]
  herbicidal effect rating, J: blackgrass: 0 (Herbicidal rate of 5% or less (almost no effect))
Windgrass [11]
  herbicidal effect grade, L: windgrass: 0 (Herbicidal rate of 5% or less (almost no effect))
Wild oat [12]
  herbicidal effect rating, I: wild oat: 0 (Herbicidal rate of 5% or less (almost no effect))
Chinese sprangletop; 320 g/ha
  herbicidal effect on D (Chinese sprangletop), rating 0-5: 0 (Herbicidal rate of 5% or less (almost no effect))
Barnyard grass [13]
  herbicidal effect grade, H: barnyard grass: 0 (Herbicidal rate of 5% or less (almost no effect))
Redroot pigweed [14]
  herbicidal effect rating, N: redroot pigweed: 4 (Herbicidal rate of 70% or more and less than 90%)
Green foxtail [15]
  herbicidal effect rating, G: green foxtail: 0 (Herbicidal rate of 5% or less (almost no effect))
Green foxtail [16]
  herbicidal effect grade, G: green foxtail: 0 (Herbicidal rate of 5% or less (almost no effect))
Velvetleaf [17]
  herbicidal effect grade, M: velvetleaf: 4 (Herbicidal rate of 70% or more and less than 90%)
Wild oat [18]
  herbicidal effect grade, I: wild oat: 0 (Herbicidal rate of 5% or less (almost no effect))
Barnyard grass [19]; 320 g/ha
  herbicidal effect on H (barnyard grass), rating 0-5: 3 (Herbicidal rate of 40% or more and less than 70%)
Southern crabgrass [20]
  herbicidal effect grade, F: southern crabgrass: 0 (Herbicidal rate of 5% or less (almost no effect))
Italian ryegrass [21]
  herbicidal effect rating, K: Italian ryegrass: 0 (Herbicidal rate of 5% or less (almost no effect))

## CSCCSc1ccc(-c2sc3ccc(F)cc3c2-c2c(O)c(C)nn(C)c2=O)cc1 [2-421]
Redroot pigweed [1]
  N: redroot pigweed, herbicidal effect grade: 5 (Herbicidal rate of 90% or more (almost completely withered))
Windgrass [2]
  herbicidal effect, L: windgrass: 0 (Herbicidal rate of 5% or less (almost no effect))
Lambsquarters [3]
  herbicidal effect, O: lambsquarters: 1 (Herbicidal rate of 5% or more and less than 20%)
Blackgrass [4]
  J: blackgrass, herbicidal effect grade: 4 (Herbicidal rate of 70% or more and less than 90%)
chickweed
  P: chickweed, herbicidal effect grade: 5 (Herbicidal rate of 90% or more (almost completely withered))
Rice flat sedge; [22]
  herbicidal effect on E: rice flat sedge: 5 (Herbicidal rate of 90% or more (almost completely withered))
Persian speedwell
  R: persian speedwell, herbicidal effect grade: 5 (Herbicidal rate of 90% or more (almost completely withered))
Barnyard grass [5]
  herbicidal effect, H: barnyard grass: 1 (Herbicidal rate of 5% or more and less than 20%)
False cleavers
  herbicidal effect, Q: false cleavers: 0 (Herbicidal rate of 5% or less (almost no effect))
Italian ryegrass [6]
  K: Italian ryegrass, herbicidal effect grade: 3 (Herbicidal rate of 40% or more and less than 70%)
Velvetleaf [7]
  herbicidal effect, M: velvetleaf: 2 (Herbicidal rate of 20% or more and less than 40%)
Lambsquarters [8]
  O: lambsquarters, herbicidal effect grade: 4 (Herbicidal rate of 70% or more and less than 90%)
Southern crabgrass [9]
  herbicidal effect, F: southern crabgrass: 2 (Herbicidal rate of 20% or more and less than 40%)
Blackgrass [10]
  herbicidal effect, J: blackgrass: 0 (Herbicidal rate of 5% or less (almost no effect))
Windgrass [11]
  L: windgrass, herbicidal effect grade: 5 (Herbicidal rate of 90% or more (almost completely withered))
Wild oat [12]
  herbicidal effect, I: wild oat: 0 (Herbicidal rate of 5% or less (almost no effect))
Chinese sprangletop; [22]
  herbicidal effect on D: Chinese sprangletop: 2 (Herbicidal rate of 20% or more and less than 40%)
Barnyard grass [13]
  H: barnyard grass, herbicidal effect grade: 5 (Herbicidal rate of 90% or more (almost completely withered))
Redroot pigweed [14]
  herbicidal effect, N: redroot pigweed: 5 (Herbicidal rate of 90% or more (almost completely withered))
Green foxtail [15]
  herbicidal effect, G: green foxtail: 3 (Herbicidal rate of 40% or more and less than 70%)
Green foxtail [16]
  G: green foxtail, herbicidal effect grade: 5 (Herbicidal rate of 90% or more (almost completely withered))
Velvetleaf [17]
  M: velvetleaf, herbicidal effect grade: 3 (Herbicidal rate of 40% or more and less than 70%)
Wild oat [18]
  I: wild oat, herbicidal effect grade: 5 (Herbicidal rate of 90% or more (almost completely withered))
Barnyard grass [19]; [22]
  herbicidal effect on H: barnyard grass: 5 (Herbicidal rate of 90% or more (almost completely withered))
Southern crabgrass [20]
  F: southern crabgrass, herbicidal effect grade: 5 (Herbicidal rate of 90% or more (almost completely withered))
Italian ryegrass [21]
  herbicidal effect, K: Italian ryegrass: 0 (Herbicidal rate of 5% or less (almost no effect))
